Assays:
[1] = target: T1, CDK1/Cyclin B1 (Homo sapiens, UniProt P06493); experiment: CDK1/Cyclin B1 enzymatic phosphorylation assay (Caliper mobility shift); assay type: biochemical; conditions: read-out: Enzyme CDK1/cyclin B1 IC50
T1 construct: GST; purchased BPS 40454
Description: (§1) Reactions proceeded until between 10% to 20% total peptides were phosphorylated at room temperature (25° C.) and were terminated with 35 mM 2,2′,2″,2′″-(ethane-1,2-diyldinitrilo)tetraacetic acid (EDTA). Product was detected using the Caliper mobility shift detection method where the phosphorylated peptide (product) and substrate were electrophoretically separated and measured. Percent activity was plotted against log concentration of compound and points to generate an apparent IC50.

[2] = target: T2, CDK2/Cyclin E (Homo sapiens, UniProt P24941); experiment: CDK2/Cyclin E enzymatic phosphorylation assay (Caliper mobility shift); assay type: biochemical; conditions: read-out: Enzyme CDK2/cyclin E IC50; note: 1.0 mM ATP or ATP Km
T2 construct: purchased Eurofins 14-475
Description: as §1

T1 sequence (P06493 whole entry): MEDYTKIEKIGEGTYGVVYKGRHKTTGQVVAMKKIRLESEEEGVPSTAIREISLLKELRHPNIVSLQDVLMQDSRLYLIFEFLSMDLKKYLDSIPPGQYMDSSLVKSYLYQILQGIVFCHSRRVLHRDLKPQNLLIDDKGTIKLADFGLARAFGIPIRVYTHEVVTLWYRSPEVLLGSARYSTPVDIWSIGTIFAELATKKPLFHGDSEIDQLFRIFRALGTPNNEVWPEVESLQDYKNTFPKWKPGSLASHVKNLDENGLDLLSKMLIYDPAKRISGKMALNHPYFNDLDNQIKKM
T1 sequence (P14635 whole entry partner): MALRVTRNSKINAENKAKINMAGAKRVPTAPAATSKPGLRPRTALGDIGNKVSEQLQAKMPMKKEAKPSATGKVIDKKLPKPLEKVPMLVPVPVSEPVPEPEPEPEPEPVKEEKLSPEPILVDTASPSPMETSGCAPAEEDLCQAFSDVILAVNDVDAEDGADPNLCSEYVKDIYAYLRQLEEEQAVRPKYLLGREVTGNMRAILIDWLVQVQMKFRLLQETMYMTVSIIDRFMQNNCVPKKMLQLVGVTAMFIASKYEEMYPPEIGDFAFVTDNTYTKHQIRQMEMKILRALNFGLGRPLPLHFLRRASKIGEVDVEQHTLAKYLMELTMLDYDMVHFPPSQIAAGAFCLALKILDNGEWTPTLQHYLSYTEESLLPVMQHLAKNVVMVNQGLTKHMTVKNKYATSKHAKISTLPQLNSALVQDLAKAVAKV

- IC50 [1]: 2080 nM
- IC50 [2]: 56 nM
SMILES: CC(C)c1cc(Nc2cnc3cnn(CC4CCN(C)CC4)c3n2)n[nH]1 [Example 64, N-(5-isopropyl-1H-pyrazol-3-yl)-1-((1-methylpiperidin-4-yl)methyl)-1H-pyrazolo[3,4-b]pyrazin-6-amine]

— US20260217717A1, “CDK2 INHIBITORS” (BLUEPRINT MEDICINES CORPORATION, priority 2023, published 2026)
